Experiments:
Assay type in all cases: cell-based, human
PSA mRNA = test: PSA expression in C4-2 cells; settings: 48 hrs; for Percent inhibition of PSA expression: C4-2 cells, CSS + DHT medium
Protocol: Cells were plated at 1,000 cells per well. […] After an incubation period of 48 hrs, RNA levels of AR, PSA and TMPRSS2 were measured.
Cells were plated at 2,000 cells per well and cultured in CSS media with 1 nM DHT. […] After an incubation period of 48 hrs, RNA levels of AR, PSA and TMPRSS2 were measured.

AR mRNA = test: AR RNA expression in LNCaP cells (complete, CSS, CSS+DHT medium); settings: for Percent expression of AR in LNCaP cells cultured in CSS + DHT medium: CSS + DHT (1 nM) medium; for Percent expression of AR in LNCaP cells cultured in CSS + DHT medium / Percent expression of AR in LNCaP cells cultured in CSS medium: 48 hrs; for Percent expression of AR in LNCaP cells cultured in complete medium: 48 hours
Protocol: Cells were plated at 1,000 cells per well. […] After an incubation period of 48 hours, RNA levels of AR, PSA and TMPRSS2 were measured.
(§1) Cells were plated at 2,000 cells per well and cultured in phenol red-free RPMI supplemented with 5% charcoal stripped serum (Gibco) media for 16 hours. […] After an incubation period of 4 hrs, DHT was added to the medium to a final concentration of 1 nM as indicated. RNAs were collected 48 hrs later and levels of AR, PSA and TMPRSS2 were measured.

TMPRSS2 mRNA [1] = test: Time-course TMPRSS2 expression in C4-2B cells
Protocol: C4-2B cells were plated at 1,000 cells per well in complete medium. […] ISIS 549148 was included as a negative control. […] After a treatment period of 8 hours, 24 hours, and 48 hours, AR expression was measured with primer probe set hAR-LTS00943. Results are presented in Tables 70-72 as percent expression of AR, relative to non-treated cells.
Expression analysis of prostate-specific antigen (PSA) and TMPRSS2 were also analyzed. Results are presented in Tables 73-75 as percent inhibition of PSA expression and Tables 76-78 as percent inhibition of TMPRSS2 expression, relative to non-treated cells.

TMPRSS2 mRNA [2] = test: TMPRSS2 expression in LNCaP cells (complete, CSS+DHT medium); settings: for Percent inhibition of TMPRSS2 expression in LNCaP cells cultured in CSS + DHT medium: CSS + DHT (1 nM) medium, 48 hrs; for Percent inhibition of TMPRSS2 expression in LNCaP cells cultured in complete medium: 48 hours
Protocol: Cells were plated at 1,000 cells per well. […] ISIS 549148 was included as a negative control. […] After an incubation period of 48 hours, RNA levels of AR, PSA and TMPRSS2 were measured.
as §1, with “hours. […] ISIS 549148 was included as a negative control.” for “hours.”, “measured. In the absence of DHT, AR expression in LNCaP cells was 95%, PSA expression was 7% and TMPRSS2 expression was 24% compared to the untreated control.” for “measured.”

TMPRSS2 mRNA [3] = test: TMPRSS2 expression in 22RV1 cells; settings: RNAiMax, 48 hrs
Protocol: Cells were plated at 1,000 cells per well. […] After an incubation period of 48 hrs, RNA levels of full length AR, the V7 variant, PSA and TMPRSS2 were measured.
After an incubation period of 48 hrs, RNA levels of full length AR, the V7 variant, PSA and TMPRSS2 were measured.
Cells were plated at 2,000 cells per well and cultured in CSS media for 16 hours. […] After 4 hrs, 1 nM DHT was added. […] After an incubation period of 48 hrs, RNA levels of AR, AR V7 variant, PSA and TMPRSS2 were measured.

LNCaP cells = test: LNCaP cell proliferation (complete or CSS+DHT medium); settings: 5 days; for Proliferation (% untreated control) in LNCaP cells cultured in CSS + DHT medium: CSS + 1 nM DHT medium
Protocol: After a treatment period of 5 days in complete medium or CSS+1 nM DHT medium, the proliferative capacity of the cancer cells was measured with using CellTiter 96® AQueous One Solution or CellTiter-Glo® solution Cell Proliferation kit (Promega), following the manufacturer's instructions. […] Treatment with ISIS oligonucleotides in CSS+DHT medium reduced the proliferative capacity to a greater extent than treatment with MVD-3100. The proliferative capacity of cells cultured in CSS medium without DHT is 17% of untreated control levels.

TGATTTAATGGTTGCA [ISIS 569236] (cEt/MOE gapmer chemistry, further chemistry not given here) [targets intron 1]
Percent inhibition of PSA expression (PSA mRNA; 0.04 μM): 0% | Percent inhibition of PSA expression (PSA mRNA; 0.2 μM): 4% | Percent inhibition of PSA expression (PSA mRNA; 1 μM): 57% | Percent inhibition of PSA expression (PSA mRNA; 5.0 μM): 64% | Percent inhibition of PSA expression in C4-2 cells cultured in complete medium (PSA mRNA; 0.04 μM): 35% | Percent inhibition of PSA expression in C4-2 cells cultured in complete medium (PSA mRNA; 0.2 μM): 62% | Percent inhibition of PSA expression in C4-2 cells cultured in complete medium (PSA mRNA; 1 μM): 83% | Percent inhibition of PSA expression in C4-2 cells cultured in complete medium (PSA mRNA; 5.0 μM): 88% | Percent expression of AR in LNCaP cells cultured in CSS + DHT medium (AR mRNA; 0.04 μM): 104% | Percent expression of AR in LNCaP cells cultured in CSS + DHT medium (AR mRNA; 0.2 μM): 86% | Percent expression of AR in LNCaP cells cultured in CSS + DHT medium (AR mRNA; 1 μM): 55% | Percent expression of AR in LNCaP cells cultured in CSS + DHT medium (AR mRNA; 5.0 μM): 21% | Percent expression of AR in LNCaP cells cultured in CSS medium (AR mRNA; 0.04 μM): 94% | Percent expression of AR in LNCaP cells cultured in CSS medium (AR mRNA; 0.2 μM): 66% | Percent expression of AR in LNCaP cells cultured in CSS medium (AR mRNA; 1 μM): 35% | Percent expression of AR in LNCaP cells cultured in CSS medium (AR mRNA; 5.0 μM): 13% | Percent expression of AR in LNCaP cells cultured in complete medium (AR mRNA; 0.04 μM): 98% | Percent expression of AR in LNCaP cells cultured in complete medium (AR mRNA; 0.2 μM): 90% | Percent expression of AR in LNCaP cells cultured in complete medium (AR mRNA; 1 μM): 47% | Percent expression of AR in LNCaP cells cultured in complete medium (AR mRNA; 5.0 μM): 20% | Percent inhibition of TMPRSS2 expression compared to the control group in 8 hours (TMPRSS2 mRNA [1]; 0.04 μM): 0% | Percent inhibition of TMPRSS2 expression compared to the control group in 24 hours (TMPRSS2 mRNA [1]; 0.04 μM): 10% | Percent inhibition of TMPRSS2 expression compared to the control group in 48 hours (TMPRSS2 mRNA [1]; 0.04 μM): 22% | Percent inhibition of TMPRSS2 expression compared to the control group in 8 hours (TMPRSS2 mRNA [1]; 0.2 μM): 0% | Percent inhibition of TMPRSS2 expression compared to the control group in 24 hours (TMPRSS2 mRNA [1]; 0.2 μM): 32% | Percent inhibition of TMPRSS2 expression compared to the control group in 48 hours (TMPRSS2 mRNA [1]; 0.2 μM): 57% | Percent inhibition of TMPRSS2 expression compared to the control group in 8 hours (TMPRSS2 mRNA [1]; 1 μM): 0% | Percent inhibition of TMPRSS2 expression compared to the control group in 24 hours (TMPRSS2 mRNA [1]; 1 μM): 57% | Percent inhibition of TMPRSS2 expression compared to the control group in 48 hours (TMPRSS2 mRNA [1]; 1 μM): 70% | Percent inhibition of TMPRSS2 expression compared to the control group in 8 hours (TMPRSS2 mRNA [1]; 5.0 μM): 0% | Percent inhibition of TMPRSS2 expression compared to the control group in 24 hours (TMPRSS2 mRNA [1]; 5.0 μM): 66% | Percent inhibition of TMPRSS2 expression compared to the control group in 48 hours (TMPRSS2 mRNA [1]; 5.0 μM): 75% | TMPRSS2 expression (TMPRSS2 mRNA [1]; time course): reduced PSA and TMPRSS2 expression in the cells relative to the control set at the 24 hr and 48 hr time points | Percent inhibition of TMPRSS2 expression in LNCaP cells cultured in CSS + DHT medium (TMPRSS2 mRNA [2]; 0.04 μM): 6% | Percent inhibition of TMPRSS2 expression in LNCaP cells cultured in CSS + DHT medium (TMPRSS2 mRNA [2]; 0.2 μM): 8% | Percent inhibition of TMPRSS2 expression in LNCaP cells cultured in CSS + DHT medium (TMPRSS2 mRNA [2]; 1 μM): 40% | Percent inhibition of TMPRSS2 expression in LNCaP cells cultured in CSS + DHT medium (TMPRSS2 mRNA [2]; 5.0 μM): 50% | Percent inhibition of TMPRSS2 expression in LNCaP cells cultured in complete medium (TMPRSS2 mRNA [2]; 0.04 μM): 0% | Percent inhibition of TMPRSS2 expression in LNCaP cells cultured in complete medium (TMPRSS2 mRNA [2]; 0.2 μM): 5% | Percent inhibition of TMPRSS2 expression in LNCaP cells cultured in complete medium (TMPRSS2 mRNA [2]; 1 μM): 40% | Percent inhibition of TMPRSS2 expression in LNCaP cells cultured in complete medium (TMPRSS2 mRNA [2]; 5.0 μM): 48% | Percent inhibition of TMPRSS2 expression (TMPRSS2 mRNA [3]; CSS + DHT medium, 1.34 nM): 27% | Percent inhibition of TMPRSS2 expression (TMPRSS2 mRNA [3]; CSS + DHT medium, 4.0 nM): 50% | Percent inhibition of TMPRSS2 expression (TMPRSS2 mRNA [3]; CSS + DHT medium, 13.4 nM): 75% | Percent inhibition of TMPRSS2 expression (TMPRSS2 mRNA [3]; complete medium, 1.34 nM): 0% | Percent inhibition of TMPRSS2 expression (TMPRSS2 mRNA [3]; complete medium, 4.0 nM): 13% | Percent inhibition of TMPRSS2 expression (TMPRSS2 mRNA [3]; complete medium, 13.4 nM): 21% | Percent inhibition of TMPRSS2 expression (TMPRSS2 mRNA [3]; complete medium, 40 nM): 36% | Proliferation (% untreated control) in LNCaP cells cultured in CSS + DHT medium (LNCaP cells; 0.04 μM): 95 % untreated control | Proliferation (% untreated control) in LNCaP cells cultured in CSS + DHT medium (LNCaP cells; 0.2 μM): 99 % untreated control | Proliferation (% untreated control) in LNCaP cells cultured in CSS + DHT medium (LNCaP cells; 1 μM): 54 % untreated control | Proliferation (% untreated control) in LNCaP cells cultured in CSS + DHT medium (LNCaP cells; 5.0 μM): 17 % untreated control | proliferation of LNCaP cells (LNCaP cells; complete medium or CSS+1 nM DHT): reduced proliferation of the cells in a dose dependent compared to the control | Proliferation (% untreated control) in LNCaP cells cultured in complete medium (LNCaP cells; 0.04 μM): 100 % untreated control | Proliferation (% untreated control) in LNCaP cells cultured in complete medium (LNCaP cells; 0.2 μM): 85 % untreated control | Proliferation (% untreated control) in LNCaP cells cultured in complete medium (LNCaP cells; 1 μM): 68 % untreated control | Proliferation (% untreated control) in LNCaP cells cultured in complete medium (LNCaP cells; 5.0 μM): 54 % untreated control

Source: patent USRE48461E1, “Modulation of androgen receptor expression” (Ionis Pharmaceuticals, Inc., priority 2012, dated 2021)
